This test concerns the target T1, human clotting factor VIIa (Homo sapiens, UniProt P08709).
T1 construct: a human clotting factor VIIa (hereinafter, “Factor VIIa”) purified sample; purchased Enzyme Research Laboratories HFVIIa
Put plainly: Inhibitory activity against clotting factor VIIa (chromogenic substrate Spectrozyme FVIIa, TF/Factor VIIa enzyme solution). To be noted: human Factor VIIa 5 nmol/L with human TF 10 nmol/L, room temperature 40 minutes, 405 nm. In kind it is biochemical. Summed up:
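Human Factor VIIa (5 nmol/L) with human TF (10 nmol/L) in Tris-BSA buffer pH 7.4 containing 15 mmol/L CaCl2 and cephalin, with Spectrozyme FVIIa substrate. Reaction 40 min at room temperature; 4-nitroanilide read at 405 nm. IC50 by non-linear regression over 100 μmol/L–0.1 nmol/L.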

For 24 molecules, IC50 results are on record in patent US7816522B2, “Triazolone derivatives” (Eisai Co., Ltd., priority 2006, dated 2010).

Structures are written as SMILES.

T1 sequence (P08709 213-466 limits assumed): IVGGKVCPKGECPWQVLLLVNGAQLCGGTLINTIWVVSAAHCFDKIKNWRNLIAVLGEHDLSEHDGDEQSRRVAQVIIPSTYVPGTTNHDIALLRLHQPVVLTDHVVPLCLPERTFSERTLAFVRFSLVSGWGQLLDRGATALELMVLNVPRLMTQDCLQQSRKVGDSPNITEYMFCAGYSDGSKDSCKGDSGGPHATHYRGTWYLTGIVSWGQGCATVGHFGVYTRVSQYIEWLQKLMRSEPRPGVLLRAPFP
T1 sequence (P08709 61-212 limits assumed): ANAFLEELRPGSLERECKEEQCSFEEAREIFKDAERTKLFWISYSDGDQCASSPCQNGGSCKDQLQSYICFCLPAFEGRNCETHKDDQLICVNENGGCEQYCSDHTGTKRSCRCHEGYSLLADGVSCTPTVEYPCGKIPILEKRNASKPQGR
T1 sequence (P13726 33-295 partner): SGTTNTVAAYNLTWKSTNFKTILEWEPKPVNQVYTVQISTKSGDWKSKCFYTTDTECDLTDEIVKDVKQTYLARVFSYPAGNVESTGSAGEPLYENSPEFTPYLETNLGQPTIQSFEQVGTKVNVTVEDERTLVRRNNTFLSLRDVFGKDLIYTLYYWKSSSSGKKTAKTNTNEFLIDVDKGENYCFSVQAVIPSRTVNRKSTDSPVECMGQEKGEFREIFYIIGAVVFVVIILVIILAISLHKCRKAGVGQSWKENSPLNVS

What is called IC50 is the concentration needed to halve the response being measured. In the case of `COc1cc(OCCO)c(F)c(C(Nc2ccc(C(=N)N)cc2)c2nn(-c3ncccn3)c(=O)[nH]2)c1` (racemic) [Example 153, 4-({[2-fluoro-3-(2-hydroxyethoxy)-5-methoxyphenyl]-(5-oxo-1-pyrimidin-2-yl-4,5-dihydro-1H-[1,2,4]triazol-3-yl)methyl}amino)benzamidine], the IC50 was 4.8 nM.
With `COc1cc(OC)c(F)c(C(Nc2ccc(C(=N)N)cc2)c2nn(-c3ncc[nH]c3=O)c(=O)[nH]2)c1` (racemic) [Example 154, (R) and (S)-4-({(2-fluoro-3,5-dimethoxyphenyl)-[5-oxo-1-(3-oxo-3,4-dihydropyrazin-2-yl)]-4,5-dihydro-1H-[1,2,4]triazol-3-yl]methyl}amino)benzamidine acetate] the figure was 21 nM.
With `COc1ccc(C(Nc2ccc(C(=N)N)cc2)c2nn(-c3ccsc3C(=O)O)c(=O)[nH]2)cc1OC` (racemic) [Example 155, (R) and (S)-3-{3-[(4-carbamimidoylphenylamino)-(3,4-dimethoxyphenyl)methyl]-5-oxo-4,5-dihydro[1,2,4]triazol-1-yl}thiophene-2-carboxylic acid acetate] the figure was 2.3 nM.
With `COc1cc(C(Nc2ccc(C(=N)N)cc2)c2nn(-c3ncccn3)c(=O)[nH]2)cc2c1OCCCO2` (racemic) [Example 156, (R) and (S)-4-{[(9-methoxy-3,4-dihydro-2H-benzo[b][1,4]dioxepin-7-yl)-(5-oxo-1-pyrimidin-2-yl-4,5-dihydro-1H-[1,2,4]triazol-3-yl)methyl]amino}benzamidine acetate], 5.2 nM corresponded to half-maximal inhibition (IC50).
With `COc1cc(OCCCO)cc(C(Nc2ccc(C(=N)N)cc2)c2nn(-c3ncccn3)c(=O)[nH]2)c1` (racemic) [Example 158, 4-({[3-(3-hydroxypropoxy)-5-methoxyphenyl]-(5-oxo-1-pyrimidin-2-yl-4,5-dihydro-1H-[1,2,4]triazol-3-yl)methyl}amino)benzamidine] the figure was 5.1 nM.
For the molecule `COc1cc(C(Nc2ccc(C(=N)N)cc2)c2nn(-c3ncccn3)c(=O)[nH]2)cc(OCCO)c1OC` (racemic) [Example 159, 4-({(R) and (S)-[3-(2-hydroxyethoxy)-4,5-dimethoxyphenyl]-(5-oxo-1-pyrimidin-2-yl-4,5-dihydro-1H-[1,2,4]triazol-3-yl)methyl}amino)benzamidine acetate], the IC50 turned out to be 11.7 nM.
`CCOc1cc(C(Nc2ccc(C(=N)N)cc2)c2nn(-c3ncccn3)c(=O)[nH]2)cnc1OC` (racemic) [Example 160, 4-{[(R) and (S)-(5-ethoxy-6-methoxypyridin-3-yl)-(5-oxo-1-pyrimidin-2-yl-4,5-dihydro-1H-[1,2,4]triazol-3-yl)methyl]amino}benzamidine acetate] returned a 50% inhibitory concentration (IC50) of 9.4 nM.
`COc1cc(C(Nc2ccc(C(=N)N)cc2)c2nn(-c3ncccn3)c(=O)[nH]2)c(F)c2c1OCC2` (racemic) [Example 161, (R) and (S)-4-{[(4-fluoro-7-methoxy-2,3-dihydrobenzofuran-5-yl)-(5-oxo-1-pyrimidin-2-yl-4,5-dihydro-1H-[1,2,4]triazol-3-yl)methyl]-amino}benzamidine acetate] showed an IC50 of 9 nM.
With `COc1cc(F)c(C(Nc2ccc(C(=N)N)cc2)c2nn(-c3ncsc3C(=O)O)c(=O)[nH]2)cc1OC` (racemic) [Example 162, (R) and (S)-4-{3-[(4-carbamimidoylphenylamino)-(2-fluoro-4,5-dimethoxyphenyl)methyl]-5-oxo-4,5-dihydro[1,2,4]triazol-1-yl}thiazole-5-carboxylic acid] the figure was 16.5 nM.
`COc1cc(OCCCO)c(F)c(C(Nc2ccc(C(=N)N)cc2)c2nn(-c3ncsc3C(=O)O)c(=O)[nH]2)c1` (racemic) [Example 163, (R) and (S)-4-(3-{(4-carbamimidoylphenylamino)-[2-fluoro-3-(3-hydroxypropoxy)-5-methoxyphenyl]methyl}-5-oxo-4,5-dihydro-[1,2,4]triazol-1-yl)thiazole-5-carboxylic acid] registered an IC50 of 10.5 nM. This IC50 is about 1.6-fold lower than that of the molecule before.
With `COc1cc(C(Nc2ccc(C(=N)N)cc2)c2nn(-c3ncsc3C(N)=O)c(=O)[nH]2)c(F)c2c1OCOC2` (racemic) [Example 164, (R) and (S)-4-{3-[(4-carbamimidoylphenylamino)-(5-fluoro-8-methoxy-4H-benzo[1,3]dioxin-6-yl)methyl]-5-oxo-4,5-dihydro-[1,2,4]triazol-1-yl}thiazole-5-carboxylic acid amide] the figure was 24.5 nM; with `COc1cc(C(Nc2ccc(C(=N)N)cc2)c2nn(-c3ncsc3C(=O)O)c(=O)[nH]2)c(F)c2c1OCOC2` (racemic) [Example 165, (R) and (S)-4-{3-[(4-carbamimidoylphenylamino)-(5-fluoro-8-methoxy-4H-benzo[1,3]dioxin-6-yl)methyl]-5-oxo-4,5-dihydro-[1,2,4]triazol-1-yl}thiazole-5-carboxylic acid], 25.8 nM.
With `COc1cc(C(Nc2ccc(C(=N)N)cc2)c2nn(-c3ncsc3C(=O)O)c(=O)[nH]2)cc2c1OCOC2` (racemic) [Example 166, (R) and (S)-4-{3-[(4-carbamimidoylphenylamino)-(8-methoxy-4H-benzo[1,3]dioxin-6-yl)methyl]-5-oxo-4,5-dihydro-[1,2,4]triazol-1-yl}thiazole-5-carboxylic acid] the figure was 18.7 nM; with `COc1cc(OCCO)c(F)c(C(Nc2ccc(C(=N)N)cc2)c2nn(-c3ncsc3C(=O)O)c(=O)[nH]2)c1` (racemic) [Example 167, (R) and (S)-4-(3-{(4-carbamimidoylphenylamino)-[2-fluoro-3-(2-hydroxyethoxy)-5-methoxyphenyl]methyl}-5-oxo-4,5-dihydro[1,2,4]triazol-1-yl)thiazole-5-carboxylic acid], 11.1 nM.
With `COc1cc(C(Nc2ccc(C(=N)N)cc2)c2nn(-c3ccsc3C(=O)O)c(=O)[nH]2)c(F)c2c1OCCO2` (racemic) [Example 168, (R) and (S)-3-{3-[(4-carbamimidoylphenylamino)-(5-fluoro-8-methoxy-2,3-dihydrobenzo[1,4]dioxin-6-yl)methyl]-5-oxo-4,5-dihydro-[1,2,4]triazol-1-yl}thiophene-2-carboxylic acid] the figure was 2.8 nM; with `COc1cc(C(Nc2ccc(C(=N)N)cc2)c2nn(-c3ccsc3C(=O)O)c(=O)[nH]2)cnc1OC` (racemic) [Example 169, 3-{3-[(R) and (S)-(4-carbamimidoylphenylamino)-(5,6-dimethoxypyridin-3-yl)methyl]-5-oxo-4,5-dihydro-[1,2,4]triazol-1-yl}thiophene-2-carboxylic acid acetate], 2.8 nM; with `COc1cnc(C(Nc2ccc(C(=N)N)cc2)c2nn(-c3ccsc3C(=O)O)c(=O)[nH]2)cc1OC` (racemic) [Example 170, 3-{3-[(R) and (S)-(4-carbamimidoylphenylamino)-(4,5-dimethoxypyridin-2-yl)methyl]-5-oxo-4,5-dihydro-[1,2,4]triazol-1-yl}thiophene-2-carboxylic acid], 8 nM.
Molecule `COc1cc(F)c(C(Nc2ccc(C(=N)N)cc2)c2nn(-c3ccsc3C(=O)O)c(=O)[nH]2)cc1OC` (racemic) [Example 171, (R) and (S)-3-{3-[(4-carbamimidoylphenylamino)-(2-fluoro-4,5-dimethoxyphenyl)methyl]-5-oxo-4,5-dihydro[1,2,4]triazol-1-yl}thiophene-2-carboxylic acid] had an IC50 of 3.3 nM.
With `COc1cc(C(Nc2ccc(C(=N)N)c(F)c2)c2nn(-c3ccccc3C(=O)O)c(=O)[nH]2)cc(C)n1` (racemic) [Example 173, 2-{3-[(R) and (S)-(4-carbamimidoyl-3-fluorophenylamino)-(2-methoxy-6-methylpyridin-4-yl)methyl]-5-oxo-4,5-dihydro-[1,2,4]triazol-1-yl}benzoic acid] the figure was 14.1 nM.
With `COc1cc(OCCF)c(F)c(C(Nc2ccc(C(=N)N)cc2)c2nn(-c3cccc(N)n3)c(=O)[nH]2)c1` (racemic) [Example 174, (R) and (S)-4-({[1-(6-aminopyridin-2-yl)-5-oxo-4,5-dihydro-1H-[1,2,4]triazol-3-yl]-[2-fluoro-3-(2-fluoroethoxy)-5-methoxyphenyl]methyl}amino)benzamidine acetate] the figure was 1.8 nM; with `COc1cc(C(Nc2ccc(C(=N)N)cc2)c2nn(-c3ncccc3C(=O)O)c(=O)[nH]2)c(F)c2c1OCCCO2` (racemic) [Example 176, (R) and (S)-2-{3-[(4-carbamimidoylphenylamino)-(6-fluoro-9-methoxy-3,4-dihydro-2H-benzo[b][1,4]dioxepin-7-yl)methyl]-5-oxo-4,5-dihydro-[1,2,4]triazol-1-yl}nicotinic acid], 6.1 nM.
With `COc1cc(C(Nc2ccc(C(=N)N)cc2)c2nn(-c3ccccc3C(=O)O)c(=O)[nH]2)c(F)cc1OCCO` (racemic) [Example 178, (R) and (S)-2-(3-{(4-carbamimidoylphenylamino)-[2-fluoro-4-(2-hydroxyethoxy)-5-methoxyphenyl]methyl}-5-oxo-4,5-dihydro-[1,2,4]triazol-1-yl)benzoic acid] the figure was 14.3 nM; with `CCc1cc(C(Nc2ccc(C(=N)N)cc2)c2nn(-c3ncsc3C(=O)O)c(=O)[nH]2)cc2c1OCOC2` (racemic) [Example 179, (R) and (S)-4-{3-[(4-carbamimidoylphenylamino)-(8-ethyl-4H-benzo[1,3]dioxin-6-yl)methyl]-5-oxo-4,5-dihydro-[1,2,4]triazol-1-yl}thiazole-5-carboxylic acid], 9.9 nM.
Consider `COc1ccc(C(Nc2ccc(C(=N)N)c(O)c2)c2nn(-c3ccccc3C(=O)O)c(=O)[nH]2)cc1OC` (racemic) [Example 183, 2-{3-[(R) and (S)-(4-carbamimidoyl-3-hydroxyphenylamino)-(3,4-dimethoxyphenyl)methyl]-5-oxo-4,5-dihydro-[1,2,4]triazol-1-yl}benzoic acid], for which it took 10.6 nM to reach half-maximal inhibition (IC50). This IC50 and that of the molecule before are within 1.5-fold of each other.
